Like-named read-outs stand apart in the source and are kept apart here.
Legend:
[1] = system: P. falciparum 3D7; set-up: method as in ChEMBL-NTD; details: ref ChEMBL-NTD, cited from earlier work
[2] = system: P. falciparum 3D7; test: DAPI stain fluorescent high content imaging assay, P. falciparum 3D7 (confirmatory screen, Avery); details: for % inh. At 2.5 uM: 2.5 uM (Comment column; solubility issue at 5 uM); for EC50 / inhibition of growth at 5 µM: Plasmodium falciparum; for EC50: 3D7, read-out: EC50_nM; for inhibition of growth at 5 µM: 3D7, read-out: percent_inh @ 5 uM
[3] = original screening data, source (GSK, GNF, StJude), several values separated by ';' in order of sources
[4] = values follow the order of the source (GNF; GSK; StJude)

Structure (SMILES) | EC50 [2] | inhibition of growth at 5 µM [2] | also measured
COc1ccc(-c2nonc2NC(=O)c2cccc(Cl)c2)cc1OC [MMV020660] |  |  | EC50 [1, 3]: 876 nM; % inh. At 2.5 uM [2]: 97%
CCOc1cc2c(cc1OCC)C(c1cc(OC)c(O)cc1Cl)NCC2 (centres unmarked) [MMV008956] | 370 nM | 98% | EC50 ([1]; source GNF (GNF-Pf id)): 362 nM; EC50 ([1]; source GSK (TCMDC id)): 748 nM
CCOc1cc(Cl)c(C(C)NC(=O)c2cccc(OC)c2)cc1OCC (centres unmarked) [MMV665803] | 728 nM | 98% | EC50 ([1]; source GSK): 956 nM
O=C(Nc1ccc(CN2CCOCC2)cc1)c1ccc(-c2ccc(Br)cc2)o1 [MMV665901] | 1360 nM | 96% | EC50 ([1]; source GSK): 1120 nM
c1ccc(C2=Nc3ccccc3N=C(c3ccccc3)c3ccccc32)cc1 [MMV007113] | 662 nM | 99% | EC50 [1, 4]: 678 nM
Oc1ccc(C(=C(Cl)Cl)c2ccc(O)cc2)cc1 [MMV665949] |  | 95% | EC50 ([1]; source StJude (SJ ids)): 2470 nM
O=C1c2ccc3c4c(ccc(c24)C(=O)N1CCCCO)C(=O)N(CCCCO)C3=O [MMV009085] | 795 nM | 97% | EC50 [1, 4]: 354 nM
CCN1CCN(c2cc(C)c3cc(NC(=O)c4ccc(OC)c(OC)c4)ccc3n2)CC1 [MMV019074] |  | 99% | EC50 ([1]; source GSK): 1030 nM
CCOc1cc2c(cc1OCC)C(c1cc(Cl)c(O)c(OCC)c1)NCC2 (centres unmarked) [MMV000481] | 1330 nM | 96% | EC50 ([1]; source StJude (SJ ids)): 3010 nM
COc1cccc(-c2nn(C)c3sc(C(=O)NCCN4CCN(c5ccccc5F)CC4)cc23)c1 [MMV019064] | 1300 nM | 91% | EC50 ([1]; source GSK): 955 nM
COc1ccc(OC)c(C2C3=C(CC(C)(C)CC3=O)N(c3ccc(Cl)c(Cl)c3)C3=C2C(=O)CC(C)(C)C3)c1 [MMV007208] | 912 nM | 90% | EC50 ([1]; source GNF (GNF-Pf ids)): 430 nM
O=C(Nc1ccc(CN2CCOCC2)cc1)c1ccc(-c2cc(Cl)ccc2Cl)o1 [MMV020651] | 1940 nM | 97% | EC50 [1, 3]: 613 nM
CCCN(CCC)CC(O)COc1ccccc1C(=O)Nc1ccccc1 (centres unmarked) [MMV006455] | 196 nM | 98% | EC50 ([1]; source GNF (GNF-Pf id)): 365 nM; EC50 ([1]; source GSK (TCMDC id)): 799 nM
CCN(CC)CCNc1ncnc2c1[nH]c1ccc(Br)cc12 [MMV006545] | 707 nM |  | EC50 [1, 3]: 288 nM
COc1cc2c3cc1Oc1c(OC)c(OC)cc4c1C(Cc1ccc(O)c(c1)Oc1ccc(cc1)CC3N(C)CC2)N(C)CC4 (centres unmarked) [MMV007474] | 1270 nM | 96% | EC50 [1, 4]: 997 nM
Oc1ccc(Cl)cc1CNc1nc2ccccc2[nH]1 [MMV665850] |  | 95% | EC50 ([1]; source GNF): 921 nM
c1ccc(-c2ccc(-c3nc4ccccc4[nH]3)cc2)cc1 [MMV665891] | 1070 nM | 52% | EC50 ([1]; source GSK): 809 nM
CCOC(=O)C1=CN(C)C=C(C(=O)OCC)C1c1cc(Br)c(OCC)c(OC)c1 [MMV006656] | 518 nM | 97% | EC50 [1, 4]: 913 nM
CN(C)c1ccc(C(O)(c2ccc(N(C)C)cc2)c2ccc(N(C)C)cc2)cc1 [MMV665941] | 255 nM | 96% | EC50 ([1]; source StJude (SJ id)): 620 nM

Structure (SMILES) | EC50 [2] | inhibition of growth at 5 µM [2] | also measured
CCOc1cccc(C(=O)Nc2ccc(-c3nc4ccccc4[nH]3)cc2)c1 [MMV019202] |  |  | EC50 [1, 3]: 1010 nM; % inh. At 2.5 uM [2]: 97%
O=c1cc(NC2CCN(CCCc3ccccc3)CC2)c2cc(Cl)ccc2o1 [MMV665786] | 846 nM | 97% | EC50 ([1]; source GNF (GNF-Pf ids)): 408 nM
OC(CNCc1ccccc1)Cn1c2ccccc2c2ccccc21 (centres unmarked) [MMV000839] | 1080 nM | 95% | EC50 ([1]; source StJude (SJ ids)): 3760 nM
COc1ccc(CN2CCN(Cc3ccccc3)CC2)c(O)c1 [MMV665944] | 1080 nM | 96% | EC50 ([1]; source StJude (SJ ids)): 1090 nM
CCOc1ccc(CN2CCN(CC(O)COc3ccc(OCC(O)CN4CCN(Cc5ccc(OCC)cc5)CC4)cc3)CC2)cc1 (centres unmarked) [MMV007092] | 1200 nM | 97% | EC50 [1, 4]: 1370 nM
O=C(Nc1ccc(-c2nc3ccccc3[nH]2)cc1)c1ccc(Cl)c(Cl)c1 [MMV665840] | 838 nM | 97% | EC50 [1, 4]: 523 nM
CCOC(=O)c1cnc2ccc(CC)cc2c1O [MMV007116] | 351 nM |  | EC50 ([1]; source GNF (GNF-Pf id)): 716 nM
CC1CC(C)CN(C(=O)c2ccc(Cl)cc2Cl)C1 (centres unmarked) [MMV001344] | 756 nM | 95% | EC50 [1, 3]: 1320 nM
O=C(Nc1ccc(Cl)c(Cl)c1)Nc1ccc(Cl)c(Cl)c1 [MMV665852] | 1160 nM | 96% | EC50 [1, 4]: 1030 nM
O=C(NC1CCN(Cc2ccccc2)CC1)c1cc(C(=O)NC2CCN(Cc3ccccc3)CC2)cc(C(=O)NC2CCN(Cc3ccccc3)CC2)c1 [MMV019881] | 646 nM | 98% | EC50 [1, 4]: 1040 nM
CSC1=NC(=Nc2c(C)cccc2C)C2(CCC(C(C)(C)C)CC2)N1c1ccc(Cl)cc1 (centres unmarked) [MMV666596] | 135 nM | 96% | EC50 ([1]; source GNF (GNF-Pf id)): 1480 nM
Cc1nc2ccccc2c(O)c1CC=C(Cl)Cl [MMV665994] | 836 nM | 89% | EC50 ([1]; source GNF (GNF-Pf ids)): 498 nM
O=C(NC(c1ccccc1)c1ccc2cccnc2c1O)c1ccccc1 (centres unmarked) [MMV666080] | 1170 nM | 95% | EC50 ([1]; source GNF): 533 nM; EC50 ([1]; source GSK): 428 nM
COc1ccccc1CNC(=O)CCn1c(=O)[nH]c2ccccc2c1=O [MMV665916] | 72.6 nM | 64% | EC50 ([1]; source GNF (GNF-Pf id)): 537 nM
Cc1ccc(C(=O)c2oc3ccc4c(C)cc(=O)oc4c3c2C)cc1 [MMV086103] | 906 nM | 96% | EC50 [1, 4]: 1030 nM
Cc1ccc(Cl)cc1N1CCN(CCCNC(=O)C2CCN(c3nc4ccccc4[nH]3)CC2)CC1 [MMV019746] | 1330 nM | 97% | EC50 ([1]; source GSK): 895 nM
CCC(O)c1ccc(Br)cc1NC(=O)c1cccc(Cl)c1 (centres unmarked) [MMV020654] | 640 nM | 97% | EC50 [1, 3]: 1020 nM
O=C1c2ccccc2-c2nnc(-c3ccc(Br)cc3)cc21 [MMV665934] | 1070 nM | 99% | EC50 ([1]; source GNF (GNF-Pf ids)): 2500 nM
O=C(NCCCN1CCC(N2CCCCC2)CC1)C1=Cc2cc(Br)ccc2OC1 [MMV019995] | 563 nM | 99% | EC50 ([1]; source GSK (TCMDC ids)): 853 nM

Structure (SMILES) | EC50 [2] | inhibition of growth at 5 µM [2] | also measured
CCOC(=O)c1c(C)n(-c2ccc(Cl)cc2)c2ccc(OC(=O)C=Cc3ccccc3)cc12 [MMV666600] | 216 nM | 97% | EC50 ([1]; source GSK (TCMDC id)): 698 nM
CCCCOC(=O)c1ccc(Nc2cc(C)nc3ccc(OC)cc23)cc1 [MMV665797] | 584 nM | 99% | EC50 ([1]; source GSK (TCMDC ids)): 640 nM
COc1ccc(C(=O)Nc2nonc2-c2ccc(OC)c(OC)c2)cc1Cl [MMV011567] | 516 nM | 92% | EC50 ([1]; source GNF): 1780 nM; EC50 ([1]; source GSK): 675 nM
CC(O)(c1ccc(Cl)cc1)C(CN1CCCCC1)c1ccccc1 (centres unmarked) [MMV000620] |  | 94% | EC50 ([1]; source StJude): 916 nM
CCOC(=O)c1ccc2nc(-c3ccccc3)cc(O)c2c1 [MMV006457] | 118 nM | 96% | EC50 ([1]; source GNF (GNF-Pf id)): 549 nM
COc1ccc2nc(C)cc(Nc3cccc(O)c3)c2c1 [MMV008212] | 969 nM | 98% | EC50 [1, 3]: 228 nM
CCOc1ccc(-c2nonc2NC(=O)c2cccc(C)c2)cc1OCC [MMV665805] | 117 nM | 86% | EC50 ([1]; source StJude): 61.9 nM
CCCCCn1c(=N)n(CC(O)COc2cccc(C)c2)c2ccccc21 (centres unmarked) [MMV000444] |  | 96% | EC50 ([1]; source StJude (SJ ids)): 2650 nM
CCN(CC)CCNc1ccnc2cc(Cl)ccc12 [MMV006087] | 58.1 nM |  | EC50 ([1]; source GNF (GNF-Pf id)): 7.16 nM
Cc1sc2ncnc(Sc3nc4ccccc4[nH]3)c2c1C [MMV019266] | 614 nM | 100% | EC50 [1, 3]: 255 nM
CCOC(=O)C1=C(c2ccccc2)N=c2sc(=Cc3cc(C)n(-c4ccc(F)cc4)c3C)c(=O)n2C1c1cccc(OC)c1OC (centres unmarked) [MMV666601] | 154 nM | 94% | EC50 ([1]; source GNF (GNF-Pf id)): 2320 nM
CC1CCN(Cc2c(O)ccc3cc(-c4nc5ccccc5s4)c(=O)oc23)CC1 [MMV009127] | 1130 nM | 91% | EC50 ([1]; source GNF (GNF-Pf ids)): 12500 nM
COc1ccc(-c2cc3c(nn2)-c2ccccc2C3=O)cc1 [MMV666026] |  | 97% | EC50 ([1]; source GNF (GNF-Pf ids)): 3840 nM
CCOC(=O)c1cn(CC)c2cc(N3CCCCC3)c(F)cc2c1=O [MMV665827] | 119 nM | 100% | EC50 ([1]; source GNF (GNF-Pf id)): 166 nM; EC50 ([1]; source GSK (TCMDC id)): 125 nM
CC1CN(C(=O)c2sc3ccccc3c2Cl)CC(C)O1 (centres unmarked) [MMV020492] | 25.5 nM | 95% | EC50 ([1]; source GSK (TCMDC id)): 87.9 nM
COc1cccc(O)c1CN1CCC2(CCCN(Cc3ccc(F)cc3)C2)C1 (centres unmarked) [MMV666061] | 530 nM | 95% | EC50 ([1]; source GSK): 865 nM
CCCC(c1nnnn1C1CCCCC1)N1CCN(C(=O)c2ccco2)CC1 (centres unmarked) [MMV666093] |  | 82% | EC50 ([1]; source GNF): 1330 nM
COc1cc(OC)c(N(C)C(=O)c2cc3c(s2)-c2ccccc2S(=O)(=O)C3)cc1Cl [MMV006427] | 78.2 nM | 100% | EC50 ([1]; source GNF (GNF-Pf id)): 113 nM

Source: publication PMC3684613 (PLoS ONE, 2013)
